The source of these data is patent US11339130B1 (Blade Therapeutics, Inc., priority 2016, dated 2022).

SMILES strings stand for the structures. Bounds are passed on as bounds.

What all share (type): biochemical
One test has as its target T1, Human Calpain 1/NS1 (Homo sapiens, UniProt P07384).
T1 sequence (P07384 1-714): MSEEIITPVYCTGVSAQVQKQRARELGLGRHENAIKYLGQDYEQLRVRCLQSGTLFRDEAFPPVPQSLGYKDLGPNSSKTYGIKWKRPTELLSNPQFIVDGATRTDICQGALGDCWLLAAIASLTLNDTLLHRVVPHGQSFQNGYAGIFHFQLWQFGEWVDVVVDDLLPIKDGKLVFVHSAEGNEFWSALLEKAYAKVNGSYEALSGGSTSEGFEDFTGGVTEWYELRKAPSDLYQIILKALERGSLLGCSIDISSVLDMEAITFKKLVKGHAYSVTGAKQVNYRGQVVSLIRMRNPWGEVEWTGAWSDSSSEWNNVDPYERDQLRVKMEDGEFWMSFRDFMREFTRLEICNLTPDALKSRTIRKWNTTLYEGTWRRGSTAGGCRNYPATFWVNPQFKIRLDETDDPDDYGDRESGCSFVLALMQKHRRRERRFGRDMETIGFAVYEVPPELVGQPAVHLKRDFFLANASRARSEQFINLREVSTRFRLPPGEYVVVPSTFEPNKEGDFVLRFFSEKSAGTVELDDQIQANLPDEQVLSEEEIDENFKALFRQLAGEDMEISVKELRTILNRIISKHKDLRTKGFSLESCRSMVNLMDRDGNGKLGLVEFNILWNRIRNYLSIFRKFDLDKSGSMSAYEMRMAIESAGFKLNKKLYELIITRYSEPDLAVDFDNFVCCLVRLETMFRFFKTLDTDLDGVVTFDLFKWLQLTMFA
T1 sequence (P04632 1-268 partner): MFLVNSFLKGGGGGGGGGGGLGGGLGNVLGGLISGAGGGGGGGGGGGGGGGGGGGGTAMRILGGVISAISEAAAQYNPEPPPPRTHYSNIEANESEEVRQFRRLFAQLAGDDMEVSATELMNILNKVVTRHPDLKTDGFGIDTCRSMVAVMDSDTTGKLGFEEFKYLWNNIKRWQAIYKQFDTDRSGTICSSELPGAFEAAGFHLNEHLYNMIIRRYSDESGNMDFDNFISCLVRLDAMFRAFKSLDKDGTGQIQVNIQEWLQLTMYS
The test is described as follows: Calpain inhibition continuous fluorescence (FRET) assay, Human Calpain 1/NS1. The conditions noted are these: Column A; read-out: Human Calpain 1/NS1 IC50. As for the experimental part:
(§1) Calpain 1, 2, and 9 activity and inhibition thereof was assessed by means of a continuous fluorescence assay. The SensoLyte 520 Calpain substrate (Anaspec Inc) was optimized for detecting calpain activity. This substrate contains an internally quenched 5-FAM/QXL™ 520 FRET pair. Calpains 1, 2, and 9 cleave the FRET substrate into two separate fragments resulting in an increase of 5-FAM fluorescence that is proportional to calpain activity
(§2) Assays were typically setup in black 384-well plates using automated liquid handling as follows. Calpain assay base buffer typically contains 50 mM Tris, pH 7.5, 100 mM NaCl and 1 mM DTT. Inhibitors were serially diluted in DMSO and used to setup 2× mixtures with calpains in the aforementioned buffer. After incubation at ambient temperature (25C), the reaction was initiated by adding a 2× mix of the fluorescent peptide substrate and CaCl2) (required for in-situ calpain activation) in the same buffer. Reaction progress curve data were typically collected for 10 min using excitation/emission wavelengths of 490 nm/520 nm on SpectraMax i3× or the FLIPR-Tetra plate readers (Molecular Devices Inc). Reaction rates were calculated from progress curve slopes typically over 1-5 min. Dose response curves (rate vs. log inhibitor concentration) were typically fit to a 4-parameter logistic function to extract IC50 values.

The next test deals with T2, Human Calpain 2/NS1 (Homo sapiens, UniProt P17655).
T2 sequence (P17655 1-700): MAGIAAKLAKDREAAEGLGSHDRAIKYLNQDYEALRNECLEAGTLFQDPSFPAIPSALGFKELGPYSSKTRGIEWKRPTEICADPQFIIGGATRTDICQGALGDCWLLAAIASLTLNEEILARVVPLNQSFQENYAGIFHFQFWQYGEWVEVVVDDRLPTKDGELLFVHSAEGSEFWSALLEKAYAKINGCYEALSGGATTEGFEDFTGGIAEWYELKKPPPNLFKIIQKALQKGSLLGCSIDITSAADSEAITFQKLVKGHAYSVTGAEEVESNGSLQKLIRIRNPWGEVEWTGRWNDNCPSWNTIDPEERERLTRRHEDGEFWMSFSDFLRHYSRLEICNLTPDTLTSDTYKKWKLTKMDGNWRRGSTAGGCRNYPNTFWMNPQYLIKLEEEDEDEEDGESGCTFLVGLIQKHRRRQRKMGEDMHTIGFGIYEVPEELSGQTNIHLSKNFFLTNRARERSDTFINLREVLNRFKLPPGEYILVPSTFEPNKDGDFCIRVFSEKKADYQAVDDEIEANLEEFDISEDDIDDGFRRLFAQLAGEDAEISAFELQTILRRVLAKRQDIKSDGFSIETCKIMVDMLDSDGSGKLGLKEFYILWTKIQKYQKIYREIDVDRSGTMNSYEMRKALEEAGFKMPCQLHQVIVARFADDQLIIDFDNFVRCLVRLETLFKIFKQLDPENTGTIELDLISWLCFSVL
T2 sequence (P04632 1-268 partner): T1 sequence (P04632 1-268 partner)
The test is described as follows: Calpain inhibition continuous fluorescence (FRET) assay, Human Calpain 2/NS1. Conditions: Column B; read-out: Human Calpain 2/NS1 IC50. As to the method:
as §1, §2

The target of a further test is T3, Human Calpain 9/NS1 (Homo sapiens, UniProt O14815).
T3 sequence (O14815 1-690): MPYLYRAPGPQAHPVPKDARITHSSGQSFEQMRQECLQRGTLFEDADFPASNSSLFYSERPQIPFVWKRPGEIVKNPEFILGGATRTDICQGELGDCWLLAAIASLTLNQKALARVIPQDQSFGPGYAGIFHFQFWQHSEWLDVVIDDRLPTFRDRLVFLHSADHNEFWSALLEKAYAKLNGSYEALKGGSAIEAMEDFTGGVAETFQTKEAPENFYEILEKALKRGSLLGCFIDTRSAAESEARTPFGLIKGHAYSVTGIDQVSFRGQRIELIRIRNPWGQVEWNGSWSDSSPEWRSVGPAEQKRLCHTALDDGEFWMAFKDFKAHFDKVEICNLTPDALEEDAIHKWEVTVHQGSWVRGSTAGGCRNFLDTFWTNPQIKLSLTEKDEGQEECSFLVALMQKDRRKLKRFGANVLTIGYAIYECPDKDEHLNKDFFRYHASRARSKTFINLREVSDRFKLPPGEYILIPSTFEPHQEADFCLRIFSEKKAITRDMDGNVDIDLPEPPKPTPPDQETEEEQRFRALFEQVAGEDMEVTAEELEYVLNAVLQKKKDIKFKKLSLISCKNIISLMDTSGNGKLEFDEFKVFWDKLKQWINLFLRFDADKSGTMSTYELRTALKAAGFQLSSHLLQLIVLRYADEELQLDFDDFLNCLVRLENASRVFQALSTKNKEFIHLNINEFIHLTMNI
T3 sequence (P04632 1-268 partner): T1 sequence (P04632 1-268 partner)
The test is described as follows: Calpain inhibition continuous fluorescence (FRET) assay, Human Calpain 9/NS1. The conditions noted are these: Column C; read-out: Human Calpain 9/NS1 IC50. As for the experimental part: as §1, §2

As to `Cc1cc(C(=O)N[C@@H](Cc2ccccc2)C(=O)C(N)=O)n(-c2ncccn2)n1` (single isomer, unassigned) [Compound 36], the IC50 at Human Calpain 1/NS1 is more than 10 µM; on Human Calpain 2/NS1 it was 3 to 10 µM; at Human Calpain 9/NS1, 3 to 10 µM.
Turning to `O=C[C@H](Cc1ccccc1)NC(=O)c1cncn1-c1ccccc1` [Compound 1, (S)—N-(1-oxo-3-phenylpropan-2-yl)-1-phenyl-1H-imidazole-5-carboxamide], the IC50 on Human Calpain 1/NS1, on Human Calpain 2/NS1 and on Human Calpain 9/NS1 was less than 3 µM throughout.
Regarding `O=C[C@H](Cc1ccccc1)NC(=O)[C@@H]1CCCN1c1nc2ccccc2s1` [Compound 3, (S)-1-(benzo[D]thiazol-2-yl)-N—((S)-1-oxo-3-phenylpropan-2-yl)pyrrolidine-2-carboxamide], the IC50 at Human Calpain 1/NS1, on Human Calpain 2/NS1 and at Human Calpain 9/NS1 was less than 3 µM each time.
As to `O=C[C@H](Cc1ccccc1)NC(=O)[C@@H]1CCCN1c1nc2ccccc2o1` [Compound 4, (S)-1-(benzo[D]oxazol-2-yl)-N—((S)-1-oxo-3-phenylpropan-2-yl)pyrrolidine-2-carboxamide], the IC50 on Human Calpain 1/NS1, at Human Calpain 2/NS1 and at Human Calpain 9/NS1 was less than 3 µM in each case.
For the compound `Cc1cc(C(=O)N[C@H](C=O)Cc2ccccc2)nn1-c1ccccc1` [Compound 5], the IC50 at Human Calpain 1/NS1 was more than 10 µM; on Human Calpain 2/NS1, 3 to 10 µM; at Human Calpain 9/NS1 it was 3 to 10 µM.
On to `NC(=O)C(=O)[C@H](Cc1ccccc1)NC(=O)c1cncn1-c1ccccc1` [Compound 7, (S)—N-(4-amino-3,4-dioxo-1-phenylbutan-2-yl)-1-phenyl-1H-imidazole-5-carboxamide], for which the IC50 on Human Calpain 1/NS1, at Human Calpain 2/NS1 and at Human Calpain 9/NS1 was less than 3 µM in each case.
Consider `Cc1cc(C(=O)N[C@H](C=O)Cc2ccccc2)n(-c2ccccc2)n1` [Compound 8, (S)-3-methyl-N-(1-oxo-3-phenylpropan-2-yl)-1-phenyl-1H-pyrazole-5-Carboxamide], for which the IC50 at Human Calpain 1/NS1, at Human Calpain 2/NS1 and at Human Calpain 9/NS1 was less than 3 µM each time.
As to `NC(=O)C(=O)[C@H](Cc1ccccc1)NC(=O)c1ccnn1-c1ccccc1` [Compound 10, (S)—N-(4-amino-3,4-dioxo-1-phenylbutan-2-yl)-1-phenyl-1H-pyrazole-5-carboxamide], the IC50 at Human Calpain 1/NS1, on Human Calpain 2/NS1 and at Human Calpain 9/NS1 was less than 3 µM each time.
Turning to `NC(=O)C(=O)[C@H](Cc1ccccc1)NC(=O)c1csnc1-c1ccccc1` [Compound 11, (S)—N-(4-amino-3,4-dioxo-1-phenylbutan-2-yl)-3-phenylisothiazole-4-carboxamide], the IC50 at Human Calpain 1/NS1, at Human Calpain 2/NS1 and on Human Calpain 9/NS1 was less than 3 µM throughout.
For `NC(=O)C(=O)[C@H](Cc1ccccc1)NC(=O)c1scnc1-c1ccccc1` [Compound 18, (S)—N-(4-amino-3,4-dioxo-1-phenylbutan-2-yl)-4-phenyl thiazole-5-carboxamide], the IC50 on Human Calpain 1/NS1, on Human Calpain 2/NS1 and on Human Calpain 9/NS1 was less than 3 µM in each case.
In the case of `Cc1noc(-c2ccc3c(c2)OCO3)c1C(=O)N[C@@H](Cc1ccccc1)C(=O)C(N)=O` [Compound 20, (S)—N-(4-amino-3,4-dioxo-1-phenylbutan-2-yl)-5-(benzo[D][1,3]dioxol-5-yl)-3-methylisoxazole-4-carboxamide], the IC50 at Human Calpain 1/NS1, on Human Calpain 2/NS1 and at Human Calpain 9/NS1 was less than 3 µM in each case.
As for `O=C[C@H](Cc1ccccc1)NC(=O)c1scnc1-n1cc(-c2ccccc2)cn1` [Compound 21, (S)—N-(1-oxo-3-phenylpropan-2-yl)-4-(4-phenyl-1H-pyrazol-1-yl)thiazole-5-carboxamide], the IC50 at Human Calpain 1/NS1, at Human Calpain 2/NS1 and at Human Calpain 9/NS1 was less than 3 µM each time.
With `O=C[C@H](Cc1ccccc1)NC(=O)c1scnc1-n1ncc2ccccc21` [Compound 22, (S)-4-(1H-indazol-1-yl)-N-(1-oxo-3-phenylpropan-2-yl)thiazole-5-carboxamide], the IC50 at Human Calpain 1/NS1, on Human Calpain 2/NS1 and on Human Calpain 9/NS1 was less than 3 µM in each case.
Turning to `O=C[C@H](Cc1ccccc1)NC(=O)c1cncn1-c1nc2ccccc2s1` [Compound 29, (S)-1-(benzo[d]thiazol-2-yl)-N-(1-oxo-3-phenylpropan-2-yl)-1H-imidazole-5-carboxamide], the IC50 on Human Calpain 1/NS1, on Human Calpain 2/NS1 and at Human Calpain 9/NS1 was less than 3 µM each time.
For the compound `O=C[C@H](Cc1ccccc1)NC(=O)c1cncn1-c1ccccn1` [Compound 31, (S)—N-(1-oxo-3-phenylpropan-2-yl)-1-(pyridin-2-yl)-1H-imidazole-5-carboxamide], the IC50 on Human Calpain 1/NS1, on Human Calpain 2/NS1 and on Human Calpain 9/NS1 was less than 3 µM throughout.
With `O=C[C@H](Cc1ccccc1)NC(=O)c1cncn1-c1ccn(-c2ccccc2)n1` [Compound 34, (S)—N-(1-oxo-3-phenylpropan-2-yl)-1-(1-phenyl-1H-pyrazol-3-yl)-1H-imidazole-5-carboxamide], the IC50 on Human Calpain 1/NS1, on Human Calpain 2/NS1 and at Human Calpain 9/NS1 was less than 3 µM throughout.
Regarding `Cc1noc(-c2ccccc2)c1C(=O)N[C@@H](CC(C)C)C(=O)C(N)=O` [Compound 35, (S)—N-(1-amino-5-methyl-1,2-dioxohexan-3-yl)-3-methyl-5-phenylisoxazole-4-carboxamide], the IC50 at Human Calpain 1/NS1, at Human Calpain 2/NS1 and on Human Calpain 9/NS1 was less than 3 µM throughout.
